Test results as given in publication PMC12845239, “Development of Novel Proline- and Pipecolic Acid-Based Allosteric Inhibitors of Dengue and Zika Virus NS2B/NS3 Protease” (Pharmaceuticals, 2025).
Where two headings read alike, the source gives them in different places.

Legend:
[1] = target: DENV-2 NS2B-NS3 protease (Dengue virus type 2, UniProt P29990); assay: DENV2 Reporter Gene Assay (DENV2proHeLa); format: cell-based; details: for inhibition at 25 µM: M-HeLa, read-out: DENV2 proHeLa % inhibition at 25 µM; for EC50: read-out: DENV2 proHeLa EC50
DENV-2 NS2B-NS3 protease, sequence (P29990 1346-1653): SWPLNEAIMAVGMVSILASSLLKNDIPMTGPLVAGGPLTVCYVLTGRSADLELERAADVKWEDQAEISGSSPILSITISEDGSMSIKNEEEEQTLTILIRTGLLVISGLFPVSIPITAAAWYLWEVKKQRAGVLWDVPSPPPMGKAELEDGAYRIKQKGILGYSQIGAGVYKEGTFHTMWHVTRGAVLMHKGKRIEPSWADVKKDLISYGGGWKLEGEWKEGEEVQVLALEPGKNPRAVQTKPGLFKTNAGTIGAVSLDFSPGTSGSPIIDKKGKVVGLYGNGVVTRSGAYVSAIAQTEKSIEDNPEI
Description: The DENV2proHeLa assay was performed as published previously. Stable cells were seeded into 96-well plates with a density of 2 × 10^4 cells per well and treated immediately with inhibitors of the DENV protease in a final volume of 100 μL. After incubation for 24 h at 37 °C, the medium was removed, and cells were lysed by adding 25 μL of lysis buffer (Promega) for 15 min at room temperature. Luciferase activity was recorded using a FLUOstar omega plate reader (BMG Labtech, Ortenberg, Germany) with injections of 100 μL per well of coelenterazine (2.75 μM in PBS). Luminescence was recorded for 5 s. Each concentration was assayed in triplicate. The percentage of inhibition was calculated in relation to the untreated control. For EC50 calculations, data were fitted and calculated with Prism 6.1 (GraphPad Software, Inc., San Diego, CA, USA) using a 4-parameter nonlinear dose-response curve with background subtraction (wells without cells).

[2] = target: T1, DENV NS2B/NS3 (Dengue virus type 2, UniProt P29990); assay: biochemical; details: for inhibition at 50 µM: read-out: DENV % inhibition at 50 µM; for inhibition at 50 µM / DENV % inhibition at 50 µM: 50 µM inhibitor, DENV-2 protease 100 nM, substrate 50 µM
T1 construct: the hydrophilic 40-residue core domain of NS2B (NS2B(H)-NS3pro); The used DENV protease construct contains the protease domain of NS3
T1 sequence (P29990 1398-1437): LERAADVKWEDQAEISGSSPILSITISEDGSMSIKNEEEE
T1 sequence (P29990 1476-1653): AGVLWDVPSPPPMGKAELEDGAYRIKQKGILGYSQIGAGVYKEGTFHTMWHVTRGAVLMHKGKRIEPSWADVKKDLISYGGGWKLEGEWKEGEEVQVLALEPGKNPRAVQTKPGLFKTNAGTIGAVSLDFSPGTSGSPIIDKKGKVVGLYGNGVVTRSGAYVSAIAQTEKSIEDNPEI

[3] = target: ZIKV NS2B/NS3 (Zika virus, UniProt A0A024B7W1, R1467A/R1531G); assay: ZIKV protease relative inhibition assay (fluorometric, Bz-Nle-Lys-Arg-Arg-AMC 10 µM); format: biochemical; details: 50 µM inhibitor, ZIKV protease 10 nM, substrate 10 µM
[4] = system: serine protease of ZIKV; details: cited from earlier work
[5] = system: serine protease of DENV; parameters: method as in PMID 31769670; details: cited from earlier work
[6] = 25 µM, HeLa reporter cells, 24 h

In the case of `O=C(Nc1nc2cc(O)c(O)cc2s1)[C@@H]1CCCN1S(=O)(=O)c1ccccc1C(F)(F)F` [Compound 2], the inhibition at 25 µM [1, 6] is reported as 27.7%, the IC50 [2] is reported as 5.1 ± 0.29 µM and the “ZIKV % inhibition at 50 µM” value [3] is reported as 49.6%.

With `O=C(Nc1nc2cc(O)c(O)cc2s1)[C@@H]1CCCN1S(=O)(=O)c1cccc(C(F)(F)F)c1` [Compound 3] the inhibition at 25 µM [1, 6] was 46.6%, the IC50 [2] was 5 ± 0.29 µM and the “ZIKV % inhibition at 50 µM” value [3] was 36.6%.

In the case of `O=C(Nc1nc2cc(O)c(O)cc2s1)[C@@H]1CCCN1S(=O)(=O)c1ccc(C(F)(F)F)cc1` [Compound 4], the inhibition at 25 µM [1, 6] is reported as 19.5%, the IC50 [2] is reported as 5.6 ± 0.39 µM and the “ZIKV % inhibition at 50 µM” value [3] is reported as 35.4%.

With `O=C(Nc1nc2cc(O)c(O)cc2s1)[C@@H]1CCCN1S(=O)(=O)c1ccccc1[N+](=O)[O-]` [Compound 5, (S)-N-(5,6-Dihydroxybenzo[d]thiazol-2-yl)-1-((2-nitrophenyl)sulfonyl)pyrrolidine-2-carboxamide] the inhibition at 25 µM [1, 6] was 18.5% and the IC50 [2] was 8 ± 0.52 µM.

`O=C(Nc1nc2cc(O)c(O)cc2s1)[C@@H]1CCCN1S(=O)(=O)c1cccc([N+](=O)[O-])c1` [Compound 6, (S)-N-(5,6-Dihydroxybenzo[d]thiazol-2-yl)-1-((3-nitrophenyl)sulfonyl)pyrrolidine-2-carboxamide] showed an inhibition at 25 µM [1, 6] of 23.5% and an IC50 [2] of 6.4 ± 0.52 µM.

For `O=C(Nc1nc2cc(O)c(O)cc2s1)[C@@H]1CCCN1S(=O)(=O)c1ccc([N+](=O)[O-])cc1` [Compound 7, (S)-N-(5,6-Dihydroxybenzo[d]thiazol-2-yl)-1-((4-nitrophenyl)sulfonyl)pyrrolidine-2-carboxamide, reference compound], the inhibition at 25 µM [1, 6] is listed as 43%, the IC50 [4] is listed as 0.93 µM and the IC50 [5] is listed as 8.58 µM. It also gave an IC50 [2] of 5 ± 0.37 µM.

In the case of `O=C(Nc1nc2cc(O)c(O)cc2s1)[C@H]1CCCN1S(=O)(=O)c1ccccc1[N+](=O)[O-]` [Compound 14, (R)-N-(5,6-Dihydroxybenzo[d]thiazol-2-yl)-1-((2-nitrophenyl)sulfonyl)pyrrolidine-2-carboxamide], the inhibition at 25 µM [1] is reported as 17.7%, the inhibition at 50 µM [2] is reported as 13.5% and the “ZIKV % inhibition at 50 µM” value [3] is reported as 68.5%.

For `O=C(Nc1nc2cc(O)c(O)cc2s1)[C@H]1CCCN1S(=O)(=O)c1cccc([N+](=O)[O-])c1` [Compound 15, (R)-N-(5,6-Dihydroxybenzo[d]thiazol-2-yl)-1-((3-nitrophenyl)sulfonyl)pyrrolidine-2-carboxamide], the inhibition at 25 µM [1, 6] was 26.9%, the inhibition at 50 µM [2] was 16.9% and the “ZIKV % inhibition at 50 µM” value [3] was 54.6%.

`O=C(Nc1nc2cc(O)c(O)cc2s1)[C@H]1CCCN1S(=O)(=O)c1ccc([N+](=O)[O-])cc1` [Compound 16, (R)-N-(5,6-Dihydroxybenzo[d]thiazol-2-yl)-1-((4-nitrophenyl)sulfonyl)pyrrolidine-2-carboxamide] gave an inhibition at 25 µM [1, 6] of 51.3% and an inhibition at 50 µM [2] of 40.7%.

With `O=C(Nc1nc2cc(O)c(O)cc2s1)[C@@H]1CCCCN1S(=O)(=O)c1ccccc1C(F)(F)F` [Compound 17, (S)-N-(5,6-Dihydroxybenzo[d]thiazol-2-yl)-1-((2-(trifluoromethyl)phenyl)sulfonyl)piperidine-2-carboxamide] the inhibition at 25 µM [1, 6] was 41.7%, the inhibition at 50 µM [2] was 58.7% and the “ZIKV % inhibition at 50 µM” value [3] was 57.2%.

With `O=C(Nc1nc2cc(O)c(O)cc2s1)[C@@H]1CCCCN1S(=O)(=O)c1cccc(C(F)(F)F)c1` [Compound 18, (S)-N-(5,6-Dihydroxybenzo[d]thiazol-2-yl)-1-((3-(trifluoromethyl)phenyl)sulfonyl)piperidine-2-carboxamide] the EC50 ([1]; HeLa reporter cells, 24 h) was 12.8 ± 0.99 µM, the inhibition at 50 µM [2] was 55.9% and the “ZIKV % inhibition at 50 µM” value [3] was 42.2%.

With `O=C(Nc1nc2cc(O)c(O)cc2s1)[C@@H]1CCCCN1S(=O)(=O)c1ccc(C(F)(F)F)cc1` [Compound 19] the EC50 ([1]; HeLa reporter cells, 24 h) was 20.3 ± 1.5 µM and the inhibition at 50 µM [2] was 51.3%.

Work on `O=C(Nc1nc2cc(O)c(O)cc2s1)[C@@H]1CCCCN1S(=O)(=O)c1ccccc1[N+](=O)[O-]` [Compound 20, (S)-N-(5,6-Dihydroxybenzo[d]thiazol-2-yl)-1-((2-nitrophenyl)sulfonyl)piperidine-2-carboxamide] yielded an inhibition at 25 µM [1, 6] of 31.4% and an inhibition at 50 µM [2] of 29.6%.

In the case of `O=C(Nc1nc2cc(O)c(O)cc2s1)[C@@H]1CCCCN1S(=O)(=O)c1cccc([N+](=O)[O-])c1` [Compound 21, (S)-N-(5,6-Dihydroxybenzo[d]thiazol-2-yl)-1-((3-nitrophenyl)sulfonyl)piperidine-2-carboxamide], the EC50 ([1]; HeLa reporter cells, 24 h) is reported as 22 ± 1.5 µM and the “DENV % inhibition at 50 µM” value [2] is reported as “n.i”.

With `O=C(Nc1nc2cc(O)c(O)cc2s1)[C@@H]1CCCCN1S(=O)(=O)c1ccc([N+](=O)[O-])cc1` [Compound 22, (S)-N-(5,6-Dihydroxybenzo[d]thiazol-2-yl)-1-((4-nitrophenyl)sulfonyl)piperidine-2-carboxamide] the EC50 ([1]; HeLa reporter cells, 24 h) was 13.4 ± 1.2 µM and the inhibition at 50 µM [2] was 59.8%.

For `O=C(Nc1nc2cc(O)c(O)cc2s1)[C@H]1CCCCN1S(=O)(=O)c1ccccc1C(F)(F)F` [Compound 23, (R)-N-(5,6-Dihydroxybenzo[d]thiazol-2-yl)-1-((2-(trifluoromethyl)phenyl)sulfonyl)piperidine-2-carboxamide], the inhibition at 25 µM [1, 6] was 18.5%, the IC50 [2] was 41.8 ± 2.2 µM and the “ZIKV % inhibition at 50 µM” value [3] was 36.2%.

For `O=C(Nc1nc2cc(O)c(O)cc2s1)[C@H]1CCCCN1S(=O)(=O)c1cccc(C(F)(F)F)c1` [Compound 24, (R)-N-(5,6-Dihydroxybenzo[d]thiazol-2-yl)-1-((3-(trifluoromethyl)phenyl)sulfonyl)piperidine-2-carboxamide], the EC50 ([1]; HeLa reporter cells, 24 h) was 5.2 ± 0.43 µM, the IC50 [2] was 30.8 ± 1.7 µM and the “ZIKV % inhibition at 50 µM” value [3] was 34.5%.

In the case of `O=C(Nc1nc2cc(O)c(O)cc2s1)[C@H]1CCCCN1S(=O)(=O)c1ccc(C(F)(F)F)cc1` [Compound 25], the inhibition at 25 µM [1, 6] is reported as 38%, the IC50 [2] is reported as 22.3 ± 1.4 µM and the “ZIKV % inhibition at 50 µM” value [3] is reported as 48.4%.

Work on `O=C(Nc1nc2cc(O)c(O)cc2s1)[C@H]1CCCCN1S(=O)(=O)c1ccccc1[N+](=O)[O-]` [Compound 26, (R)-N-(5,6-Dihydroxybenzo[d]thiazol-2-yl)-1-((2-nitrophenyl)sulfonyl)piperidine-2-carboxamide] yielded an inhibition at 25 µM [1, 6] of 9.5% and an IC50 [2] of 38.9 ± 4 µM.

For `O=C(Nc1nc2cc(O)c(O)cc2s1)[C@H]1CCCCN1S(=O)(=O)c1cccc([N+](=O)[O-])c1` [Compound 27, (R)-N-(5,6-Dihydroxybenzo[d]thiazol-2-yl)-1-((3-nitrophenyl)sulfonyl)piperidine-2-carboxamide], the EC50 ([1]; HeLa reporter cells, 24 h) was 5.1 ± 0.53 µM and the IC50 [2] was 35 ± 2.1 µM.

For `O=C(Nc1nc2cc(O)c(O)cc2s1)[C@H]1CCCCN1S(=O)(=O)c1ccc([N+](=O)[O-])cc1` [Compound 28, (R)-N-(5,6-Dihydroxybenzo[d]thiazol-2-yl)-1-((4-nitrophenyl)sulfonyl)piperidine-2-carboxamide], the EC50 ([1]; HeLa reporter cells, 24 h) was 9 ± 0.4 µM and the IC50 [2] was 27 ± 1.6 µM.

With “(S)-N-(5,6-Dihydroxybenzo[d]thiazol-2-yl)-1-(2-(trifluoromethyl)benzoyl)pyrrolidine-2-carboxamide [Compound 8]” the “DENV2 proHeLa % inhibition at 25 µM” value [1, 6] was “n.i”, the “DENV % inhibition at 50 µM” value [2] was “n.i” and the “ZIKV % inhibition at 50 µM” value [3] was “n.i”.

With “(S)-N-(5,6-Dihydroxybenzo[d]thiazol-2-yl)-1-(3-(trifluoromethyl)benzoyl)pyrrolidine-2-carboxamide [Compound 9]” the “DENV2 proHeLa % inhibition at 25 µM” value [1, 6] was 42.2%, the “DENV % inhibition at 50 µM” value [2] was 55.9% and the “ZIKV % inhibition at 50 µM” value [3] was 56.5%.

For “(S)-N-(5,6-Dihydroxybenzo[d]thiazol-2-yl)-1-(4(trifluoromethyl)benzoyl)pyrrolidine-2-carboxamide [Compound 10]”, the “DENV2 proHeLa % inhibition at 25 µM” value [1, 6] was 15.4%, the “DENV % inhibition at 50 µM” value [2] was 16.8% and the “ZIKV % inhibition at 50 µM” value [3] was 39.2%.
